Drawing on a melting point compilation (Tetko et al.; mined from patent text by program, amines drawn as free bases though some values may be those of a salt), this text covers melting point for 87 compounds.

Usually melting point stands for the temperature of the solid-liquid transition. On to `CN(Cc1ccc(NC(=O)C2=Cc3cc(-c4ccc(Cl)s4)ccc3S(=O)(=O)CC2)cc1)C1CCOCC1`, for which the melting point fell in the range of 221 to 222 °C. `CCC[C@H]1CC[C@H](c2ccc(CCC(F)F)cc2)CC1`: the melting point is 12 °C. The compound `CC(Br)C(=O)c1ccc(OC(=O)C(C)(C)C)c(OC(=O)C(C)(C)C)c1` (configuration not stated) yielded a melting point of 58 to 60 °C. The same measure for `CON(CCCCn1c(C)nc2c(N)nc3ccccc3c21)S(C)(=O)=O`: 201 to 203 °C.

Regarding `O=[N+]([O-])c1cc(Br)nc(Br)c1`, the melting point lay within 122 to 123 °C. `O=[N+]([O-])N=C(NCc1cnc(Cl)s1)NCc1cnc(Cl)s1` gave a melting point of 217 to 218 °C. Regarding `CC(C)n1nc(Br)nc1O`, the melting point fell in the range of 155 to 157 °C. For the compound `CCC(CC)Nc1nc(NC(C)=O)nc(C(C)(C)F)n1`, the melting point lay in the range of 109 to 111 °C. The same measure for `CN(Cc1ccc(N)cc1)C1CCN(c2ccc(N)cc2)CC1`: 123 °C; for `CCC(Oc1cccc(C)c1)C(=O)OC1CC(O)C=C2C=CC(C)C(CCC3CC(O)CC(=O)O3)C21` (mixture of isomers): 147 to 149 °C; for `CCCCCCCCCCc1ccc(C(=O)COC)c(OC(=O)c2cc(OC)c(OC)cc2OC)c1`: 80 to 81 °C. As for `COc1cc(OC)nc(Oc2cccc(Oc3nc(OC)cc(OC)n3)c2C(=O)OCc2ccccc2)n1`, the melting point lay in the range of 130 to 132 °C. The same measure for `COC(=O)C1CN(Cc2ccccc2)c2ccccc2CN1S(=O)(=O)c1ccc(OC)cc1` (configuration not stated): 120 to 122 °C. `O=c1ccc(C(F)(F)F)cn1Cc1c(Cl)cccc1Cl` gave a melting point of 74 to 76 °C. With `COc1cc2cc(CO)c(CO)c(-c3ccnc(-n4c(=O)cc(C(=O)N(CCO)CCO)c5ccccc54)c3)c2cc1OC`, the melting point lay within 65 to 68 °C. For `COc1ccc(-c2c(Br)c(CBr)nc3sc4c(c23)CCN(Cc2ccccc2)C4)cc1`, the melting point was 177 to 178 °C.

For the compound `CC(C)(Cl)CC1NC(=O)c2ccccc21` (configuration not stated), the melting point was in the range of 153 to 155 °C. The same measure for `CCOC(=O)c1ncn2c1CN=C(c1ccccc1)c1cc(Cl)ccc1-2`: 174 to 175 °C. The same measure for `O=C(NCC(=O)N1[C@@H](c2ccccc2)CC[C@H]1c1ccccc1)Nc1cccc(C(=O)O)c1`: 255 °C; for `COC(=O)c1sc2cccc(Cl)c2c1Br`: 120 to 122 °C. For `OC[C@@H]1O[C@H]1C#CC#CC#Cc1ccccc1` (relative stereo), the melting point was 68 to 70 °C. Take `CCn1c2ccc(C=O)cc2c2cc(C=C(c3ccccc3)c3ccccc3)ccc21`: the melting point was in the range of 166 to 167 °C.

Consider `COC(=O)C1=C(C)NC(C)=C(C(=O)OCCN2CCN(c3ccccn3)CC2)C1c1cccc([N+](=O)[O-])c1` (configuration not stated), for which the melting point lay within 53 to 56 °C. The same measure for `COc1ccc(Cc2cccc(-c3c(O)c4ccc(Cl)cc4[nH]c3=O)c2)cc1`: 282 to 284 °C.

Compound `CCOc1ccc(C2=NN(Cc3ccccc3)C(=O)[C@H]3CCCC[C@@H]23)cc1OCC` (relative stereo) displayed a melting point of 91 to 92 °C. The compound `CCOC(=O)C(=CNC1=NN(c2ccc(Cl)cc2)CC1)C(=O)OCC` yielded a melting point of 159 to 162 °C. For `CS(=O)(=O)Nc1cc(C(O)CNCCCCCCOCCCc2ccc(Cl)s2)ccc1O` (configuration not stated), the melting point lay within 85 to 87 °C. The same measure for `Cc1nc(Oc2ccc(F)cc2)cc(Oc2ccc(F)cc2)n1`: 93 to 97 °C; for `CC(C)(C)c1cc(NC(=O)Nc2csc(-c3cccnc3)n2)no1`: 230 to 232 °C. As for `CC(C)OC(=O)Cn1c(=O)n(C)c(=O)n(-c2cc(N=c3sc(=S)n4n3CCC=C4)c(F)cc2Cl)c1=O`, the melting point fell in the range of 105 to 113 °C.

On to `Cc1nc(CN(C(=O)CCl)c2c(C)cccc2C)cs1`, for which the melting point lay in the range of 62 to 64 °C. Consider `CC(C)(C)C1CSC2(CCC(C=C(Br)Br)CC2)SC1` (configuration not stated), for which the melting point is 143 °C.

Compound `c1ccc(-c2ccc3nncn3n2)nc1` yielded a melting point of 191 to 192 °C.

With `CNC(=S)Nc1ccc(Oc2sc(C(N)=O)c3c2-c2c(cnn2C)CC3)cc1`, the melting point was in the range of 199 to 201 °C. For the compound `CC(C)N(CCCCOCC(=O)O)c1nnc(-c2ccccc2)c(-c2ccccc2)n1`, the melting point fell in the range of 128 to 130 °C. Regarding `CCOC(=O)CNc1c(C#N)cnn1-c1ccc(C(F)(F)F)cc1Cl`, the melting point is 100 to 102 °C.

In turn, `O=C1C(=O)c2ccccc2C2=C1SCC1(CCN(CC(O)Cc3ccc(Cl)cc3)CC1)O2` (configuration not stated) displayed a melting point of 195 to 196 °C. Turning to `CC(CCc1ccccc1)NCC(O)c1ccc(C(N)=O)s1` (configuration not stated), the melting point lay within 108 to 116 °C. The compound `CCOC(=O)c1c2ccc(Cl)cc2c(-c2ccccc2)n1CC(=O)N(CC)CC` came in with a melting point of 118 to 120 °C. `COc1cc(-c2ccnc(-c3cn(C)c(=O)n3-c3ccc(C(C)(C)C#N)cc3)c2)ccn1` gave a melting point of 138 °C. Take `CCN(CC)C(=S)c1cccc(F)c1[Si](C)(C)C`: the melting point fell in the range of 71 to 73 °C.

In turn, `CC(C)C1=Nc2ccccc2N(C)C(=O)C1N` (configuration not stated) yielded a melting point of 167 to 168 °C. Take `OCCN1CCC(Nc2nc3ccccc3n2Cc2ccc(F)cc2)CC1`: the melting point was 139 °C. `O=C(c1nc2ccc(O)cc2[nH]1)N1CCC(Cc2ccccc2)CC1` came in with a melting point of 186 °C. The compound `CC(C)c1cccc(C(C)C)c1NC(=O)C(N)Cc1c[nH]c2ccccc12` (configuration not stated) gave a melting point of 185 to 187 °C.

Compound `Cc1cccc(C)c1NC(=O)CN1CCN(CC(O)C2COc3ccccc3O2)CC1` (configuration not stated) returned a melting point of 175 to 176 °C. Consider `Cc1c(C)c(N2CCN(c3ccccc3)CC2)c(C)c2c1OC(C)(C)C2O` (configuration not stated), for which the melting point was 142 to 144 °C.

`O=C(Nc1ccc(CC2CCN(S(=O)(=O)c3ccccc3)CC2)cc1)C(F)(F)F`: the melting point lay within 194 to 195 °C. For the compound `CC(C)(C)OC(=O)N1C[C@H](O)C[C@H]1C(N)=O`, the melting point lay within 146 to 148 °C. In the case of `COc1c(-c2ccc(S(C)(=O)=O)cc2)cnn(-c2ccc(F)c(F)c2)c1=O`, the melting point is 113 to 115 °C. The compound `CCCCCS(=O)(=O)NC(=O)c1ccc2nc(C)n(Cc3ccc(NC)cc3Cl)c2n1` came in with a melting point of 185 to 186 °C.

In turn, `Cc1cccc2c1S(=O)(=O)N=C2C1=C(O)C(C(C)(C)C)N(Cc2ccc(F)cc2)C1=O` (configuration not stated) showed a melting point of more than 250 °C. For the compound `Cc1cc(-c2ccc(C(F)(F)F)nc2)nc(-c2cccc(-c3ccc(S(N)(=O)=O)s3)c2)n1`, the melting point was found to be 238 °C. The same measure for `Cc1ccc(-c2c(CNC(=O)OC(C)(C)C)c(CC(C)C)nc3ccc(-c4nc(C(=O)OC(C)C)cs4)cc23)cc1`: 190 to 191 °C. In the case of `CCCCNc1ccc(Nc2ccccc2)c2c1C(=O)c1ccccc1C2=O`, the melting point is 118 to 120 °C. `COc1cccc2c3c(c(C)nc12)CCN3c1ccccc1C` registered a melting point of 182 to 183 °C. For the compound `CCC1(C(=O)C=Cc2ccc(OC)c(OC)c2)CC1`, the melting point lay in the range of 63 to 65 °C. `CSC(=NC#N)N(C)N=Cc1ccccc1` came in with a melting point of 132 to 133 °C. Compound `c1ccc2c(c1)OCCc1c-2n(CCN2CCCCC2)c2ccccc12` displayed a melting point of 103 °C. On to `COC(=O)c1ccc(S(=O)(=O)Cc2c(O)ccc3c2CCCC3=O)cc1`, for which the melting point was in the range of 132 to 134 °C. The compound `CCOC(=O)/C=C/C1N(C(C)C)C(=O)c2ccccc2C1(O)c1ccc(F)cc1` (configuration not stated) showed a melting point of 220 to 221 °C. Take `CCCCOC(=O)[C@H]1CN(c2cc(F)c(C3CCSCC3)c(F)c2)C(=O)O1`: the melting point lay within 86 to 89 °C. Compound `Cc1cccc2c(=O)c3ccccc3ccc12` returned a melting point of 77 to 80 °C. Compound `CC(C)(C)C(=O)Nc1ccncc1C(=NN)c1ccccc1F` registered a melting point of 78 to 82 °C. The same measure for `O=C(O)/C=C/c1ccc(OS(=O)(=O)C(F)(F)F)cc1`: 194 °C; for `CCCC1(CCC)c2cc(-c3nc4cc(C)ccc4o3)ccc2-c2cc(OC)c(-c3nc4cc(C)ccc4o3)cc21`: 240 to 248 °C; for `O[C@@H]1CN=C(c2ccc3ccccc3c2)O[C@H]1c1ccccc1` (racemic): 172 °C. The same measure for `CCO[C@@H](Cc1ccc(OCCN2CCC(C)(C)c3cc(C(=NOC)c4ccc(C(=O)O)cc4)ccc32)cc1)C(=O)O`: 83 to 85 °C. For the compound `COc1cc2c3c(cccc3c1)C(=O)c1c(O)cccc1-2`, the melting point was 207 to 208 °C. The same measure for `Cc1sc2cc(CO)ccc2c1C(=O)O`: 195 to 196 °C.

`Brc1ccc(C2NCCS2)cc1` (configuration not stated) yielded a melting point of 105 to 107 °C. The compound `CCc1nc(-c2ccc(OCCCn3ccnc3)cc2)no1` showed a melting point of 74 to 75.5 °C. For the compound `CCCCCCCCCCCCCCCCCCOc1cc(C(=O)OC)c([N+](=O)[O-])c(C(=O)OC)c1`, the melting point was in the range of 65 to 68 °C. `C[C@@H](N1CCN(c2ccc(OCC(F)(F)C(F)(F)F)cc2)C1=O)[C@@]1(c2ccc(F)cc2F)CO1`: the melting point is 141 to 144 °C. The same measure for `CCCN(CCN)CCNC(=O)c1nc(Cl)c(N)nc1N`: 91 to 94 °C. The compound `O=S(=O)(Cl)CCc1ccc(Cl)cc1` returned a melting point of 87 to 87.5 °C.

`O=C(O)c1cccc(F)c1Nc1ccccc1F` returned a melting point of 176 °C. `OC(=S)Cc1ccc(Cl)cc1`: the melting point worked out at 106 °C. Regarding `COc1cc2cc(CO)nc(-c3ccnc(NN)c3)c2cc1OC`, the melting point fell in the range of 157 to 159 °C.

`Cc1ccnc2c1C(=O)c1ccccc1-2` showed a melting point of 130 to 131 °C. `CC(C)(Oc1ccc2c(-c3ccc(Cl)cc3)noc2c1)C(=O)O`: the melting point turned out to be 132 °C. `Cc1nn(-c2c(Cl)cc(C(F)(F)F)cc2Cl)c(C)c1-c1nc(C#N)c(C#N)[nH]1`: the melting point fell in the range of 80 to 83 °C. Regarding `CN1C(=O)N(c2cc(Cl)cc(Cl)c2)C(=O)[C@]12CN(C1CC1)C[C@H]2c1ccc(C#N)cc1` (relative stereo), the melting point was found to be 216 °C. Regarding `Cc1cccc(-c2nc3ccc(OCCCN4CCCC4)cc3n2Cc2ccccc2)c1`, the melting point was 120 °C.

As for `N#Cc1ccc2c(c1)C(=O)CC2`, the melting point came to 109 °C. `COc1ccc(F)c(OC)c1-c1ccc(C[C@H](NC(=O)c2c(Cl)cccc2Cl)C(=O)O)cc1`: the melting point lay within 228 to 229 °C. Compound `CC(O)(CCC#N)c1ccc(Oc2ccc(Cl)cc2)cc1` (configuration not stated) registered a melting point of 68 to 70 °C.
